Test results from patent US10434067B2, “Composite formulation for oral administration comprising ezetimibe and rosuvastatin” (HANMI PHARM. CO., LTD., priority 2013, dated 2019).

Experiment: Forced degradation test of ezetimibe
Type: physicochemical
Conditions: for Amount of ezetimibe (%): 2 hours
Method: The main ingredient, ezetimibe was precisely weighed to about 100 mg and put in a 200 mL volumetric flask. Then, about 20 mL of 90% (v/v) acetonitrile (ACN) was added thereto, and then, completely dissolved by performing ultrasonic extraction for about 10 minutes. Next, the resultant mixture was subjected to a forced degradation test according to each condition using control, oxidation, a strong base, strong acid, and heat as described below.
1) Control: About 10 mL of distilled water was added to the mixture, and the mixture was left in an oven at a temperature of about 60° C. for about 2 hours to proceed a reaction, cooled down to room temperature, and 10 mL of distilled water was dropped thereto.
2) Oxidation: About 10 mL of a 0.5% (v/v) hydrogen peroxide solution was added to the mixture, and the mixture was left in an oven at a temperature of about 60° C. for about 2 hours to proceed a reaction, cooled down to room temperature, and 10 mL of distilled water was dropped thereto.
3) Strong base: About 10 mL of 0.1N NaOH was added to the mixture, and the mixture was left in an oven at a temperature of about 60° C. for about 2 hours to proceed a reaction, cooled down to room temperature, and t 10 mL of 0.1N HCl was dropped thereto (neutralization).
4) Strong acid: About 10 mL of 0.1N HCl was added to the mixture, and the mixture was left in an oven at a temperature of about 60° C. for about 2 hours to proceed a reaction, cooled down to room temperature, and about 10 mL of 0.1N NaOH 10 mL was dropped thereto (neutralization).
5) Heat: About 10 mL of distilled water was added to the mixture, and the mixture was left in an oven at a temperature of about 105° C. for about 2 hours to proceed a reaction, cooled down to room temperature, and about 10 mL of distilled water was dropped thereto.
Then, each of the samples obtained from the degradation test was cooled down to room temperature, and an extract solvent (i.e., a mixed solution of about 0.1 ml of 85% phosphate solution and about 1,000 ml of acetonitrile) was added thereto for each condition above, thereby preparing a test liquid in an amount of 200 mL. Then, the test liquid was analyzed by ‘HPLC’ according to General Tests as set forth in the Korean Pharmacopoeia and calculated according to a ‘quantitation testing method’ and an ‘related compound testing method’, and the amounts of ezetimibe and its main degradation products having […] relative retention time (RRT) were calculated as shown in Table 9 below and FIG. 1.
In addition, the amounts of related compounds of each of the test liquids were calculated, and then, analyzed in connection with an RRT for respective test liquids.

Total % of related compounds in test liquid (Control): 0.63%
related compound at relative retention time 0.15 (Control): − (Less than 0.05%)
related compound at relative retention time 0.26 (Control): − (Less than 0.05%)
related compound at relative retention time 0.54 (Control): − (Less than 0.05%)
related compound at relative retention time 0.64 (Control): − (Less than 0.05%)
related compound at relative retention time 0.67 (Control): − (Less than 0.05%)
related compound at relative retention time 0.74 (Control): − (Less than 0.05%)
related compound at relative retention time 1.11 (Control): − (Less than 0.05%)
related compound at relative retention time 1.18 (Control): − (Less than 0.05%)
Amount of ezetimibe (%) (Control: distilled water, 60° C.): 57.90%
Total % of related compounds in test liquid (Heat): 1.97%
related compound at relative retention time 0.15 (Heat): − (Less than 0.05%)
related compound at relative retention time 0.26 (Heat): − (Less than 0.05%)
related compound at relative retention time 0.54 (Heat): − (Less than 0.05%)
related compound at relative retention time 0.64 (Heat): − (Less than 0.05%)
related compound at relative retention time 0.67 (Heat): − (Less than 0.05%)
related compound at relative retention time 0.74 (Heat): − (Less than 0.05%)
related compound at relative retention time 1.11 (Heat): − (Less than 0.05%)
related compound at relative retention time 1.18 (Heat): + (0.05% or greater and less than 0.10%)
Amount of ezetimibe (%) (Heat: distilled water, 105° C.): 0.21%
Total % of related compounds in test liquid (Oxidation): 0.61%
related compound at relative retention time 0.15 (Oxidation): − (Less than 0.05%)
related compound at relative retention time 0.26 (Oxidation): − (Less than 0.05%)
related compound at relative retention time 0.54 (Oxidation): − (Less than 0.05%)
related compound at relative retention time 0.64 (Oxidation): − (Less than 0.05%)
related compound at relative retention time 0.67 (Oxidation): − (Less than 0.05%)
related compound at relative retention time 0.74 (Oxidation): − (Less than 0.05%)
related compound at relative retention time 1.11 (Oxidation): − (Less than 0.05%)
related compound at relative retention time 1.18 (Oxidation): − (Less than 0.05%)
Amount of ezetimibe (%) (Oxidation: 0.5% hydrogen peroxide, 60° C.): 61.06%
Total % of related compounds in test liquid (Strong acid): 0.45%
related compound at relative retention time 0.15 (Strong acid): + (0.05% or greater and less than 0.10%)
related compound at relative retention time 0.47 (Strong acid): − (Less than 0.05%)
related compound at relative retention time 0.54 (Strong acid): − (Less than 0.05%)
related compound at relative retention time 0.64 (Strong acid): − (Less than 0.05%)
related compound at relative retention time 0.67 (Strong acid): − (Less than 0.05%)
related compound at relative retention time 0.74 (Strong acid): − (Less than 0.05%)
related compound at relative retention time 1.11 (Strong acid): − (Less than 0.05%)
related compound at relative retention time 1.18 (Strong acid): − (Less than 0.05%)
related compound at relative retention time 1.37 (Strong acid): − (Less than 0.05%)
Amount of ezetimibe (%) (Strong acid: 0.1N HCl, 60° C.): 100.31%
Total % of related compounds in test liquid (Strong base): 21.48%
related compound at relative retention time 0.15 (Strong base): + (0.05% or greater and less than 0.10%)
related compound at relative retention time 0.18 (Strong base): +++++ (1.0% or greater)
related compound at relative retention time 0.26 (Strong base): + (0.05% or greater and less than 0.10%)
related compound at relative retention time 0.54 (Strong base): +++++ (1.0% or greater)
related compound at relative retention time 0.74 (Strong base): + (0.05% or greater and less than 0.10%)
related compound at relative retention time 1.11 (Strong base): + (0.05% or greater and less than 0.10%)
related compound at relative retention time 1.37 (Strong base): +++++ (1.0% or greater)
Amount of ezetimibe (%) (Strong base: 0.1N NaOH, 60° C.): 1.56%
stability of ezetimibe (in words) (in a basic environment): unstable
stability of ezetimibe (in words) (under an acidic condition): stable
SMILES: O=C1[C@H](CC[C@H](O)c2ccc(F)cc2)[C@@H](c2ccc(O)cc2)N1c1ccc(F)cc1 [ezetimibe]
related compound at relative retention time 0.18 (Control): ++ (0.10% or greater and less than 0.20%)
related compound at relative retention time 0.47 (Control): +++ (0.20% or greater and less than 0.50%)
related compound at relative retention time 1.37 (Control): ++ (0.10% or greater and less than 0.20%)
related compound at relative retention time 0.18 (Heat): ++ (0.10% or greater and less than 0.20%)
related compound at relative retention time 0.47 (Heat): ++++ (0.50% or greater and less than 1.0%)
related compound at relative retention time 1.37 (Heat): ++++ (0.50% or greater and less than 1.0%)
related compound at relative retention time 0.18 (Oxidation): ++ (0.10% or greater and less than 0.20%)
related compound at relative retention time 0.47 (Oxidation): +++ (0.20% or greater and less than 0.50%)
related compound at relative retention time 1.37 (Oxidation): ++ (0.10% or greater and less than 0.20%)
related compound at relative retention time 0.18 (Strong acid): ++ (0.10% or greater and less than 0.20%)
related compound at relative retention time 0.26 (Strong acid): ++ (0.10% or greater and less than 0.20%)
related compound at relative retention time 0.47 (Strong base): +++ (0.20% or greater and less than 0.50%)
related compound at relative retention time 0.64 (Strong base): +++ (0.20% or greater and less than 0.50%)
related compound at relative retention time 0.67 (Strong base): ++ (0.10% or greater and less than 0.20%)
related compound at relative retention time 1.18 (Strong base): ++ (0.10% or greater and less than 0.20%)
